Results: patent publication US9409952B2, “Peptide-compound cyclization method” (Chugai Seiyaku Kabushiki Kaisha, priority 2011, dated 2016)
Like-named read-outs stand apart in the source and are kept apart here. Starred links: 1 amine or outer side, 2 acyl side, 3 side chain; linkers in the order of their positions; H or OH if unused. Positions of bridges follow the written chain, without caps; N, C: chain ends. Non-standard residues stand in square brackets, D forms with d. Residues, ends and D or L forms follow the SMILES beside them. *: point of attachment. NMePhe(3-Cl) = CN[C@@H](Cc1cccc(Cl)c1)C(=O)O; Met(O2) = CS(=O)(=O)CC[C@H](N)C(=O)O; NMeF = CN[C@@H](Cc1ccccc1)C(=O)O; NMeGABA = CN(CCCC(=O)[*:2])[*:1]; NMeβAla = CN(CCC(=O)[*:2])[*:1]; NMeL = CN[C@@H](CC(C)C)C(=O)O; NMeV = CN[C@H](C(=O)O)C(C)C; NMeA = CN[C@@H](C)C(=O)O; Piperidide = C1CCN(*)CC1; NPrGly = CCCNCC(=O)O; Sar = CNCC(=O)O

How the values were obtained:
[1] = PAMPA (parallel artificial membrane permeability assay); assay type: in vitro ADME; settings: for Papp at 18 hours, 50 µM: PAMPA
Summary of the method: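 Artificial membrane was 10% (w/v) egg lecithin plus 0.5% (w/v) cholesterol in dodecane on a PVDF filter. A 10 mM DMSO stock was added at 0.5% (v/v) to donor buffer (50 mM MOPSO, pH 6.5, 5.0% glycocholic acid). After 18 h at 37 °C, LC/MS or LC/UV gave donor and acceptor levels for Pe.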

[2] = Metabolic stability in human hepatic microsome; assay type: in vitro ADME; settings: microsomes
[3] = membrane permeation rate (Pe), 50 mM MOPSO buffer pH 6.5 with 5.0% glycocholic acid, 37° C., 18 hours, read-out: iPAMPA Pe
[4] = pH 7.4, human hepatic microsome, NADPH(+), read-out: CL NADPH(+)

Structure (SMILES)	Papp at 18 hours, 50 µM [1, 3] [×10⁻⁶ cm/s]	microsomal CLint at 1 uM [2, 4] [µL/min/mg]	Papp at 18 hours, 50 µM ([1]; pH 6.5) [×10⁻⁶ cm/s]	microsomal CLint at 1 uM ([2]; human, pH 7.4, CL NADPH(+)) [µL/min/mg]	iPAMPA Pe ([1]; membrane permeation rate (Pe), 50 mM MOPSO buffer pH 6.5 with 5.0% glycocholic acid, 37° C., 18 hours)
CC[C@H](C)[C@@H]1NC(=O)[C@H](C)N(C)C(=O)CCCN(C)C(=O)C[C@@H](C(=O)N2CCCCC2)NC(=O)[C@H](CC(C)C)N(C)C(=O)[C@H](C)N(C)C(=O)[C@H]([C@@H](C)O)NC(=O)[C@H](Cc2ccccc2)N(C)C(=O)[C@H](Cc2ccccc2)N(C)C(=O)[C@H](CC(C)C)N(C)C1=O [DP-261] ([NMeGABA][NMeA]I[NMeL][NMeF][NMeF]T[NMeA][NMeL]D-Piperidide; lactam N-10)	27	84	–	–	–
CC(C)C[C@@H]1NC(=O)[C@H](CC(C)C)N(C)C(=O)[C@H]([C@@H](C)O)NC(=O)[C@H](Cc2ccccc2)N(C)C(=O)C[C@@H](C(=O)N2CCCCC2)NC(=O)[C@H](CC(C)C)N(C)C(=O)[C@H](Cc2c[nH]cn2)NC(=O)[C@H](Cc2ccccc2)N(C)C(=O)[C@H](Cc2ccccc2)N(C)C1=O [DP-905] ([NMeF]T[NMeL]L[NMeF][NMeF]H[NMeL]D-Piperidide; lactam N-9)	0.6	73	–	–	–
CC[C@H](C)[C@@H]1NC(=O)[C@H](Cc2ccccc2)N(C)C(=O)[C@H](Cc2ccccc2)NC(=O)[C@H](CC(C)C)N(C)C(=O)[C@H](CC(C)C)NC(=O)[C@H](C)NC(=O)C[C@@H](C(=O)N2CCCCC2)NC(=O)[C@H](CC(C)C)NC(=O)[C@H]([C@@H](C)O)NC(=O)[C@@H]2CCCN2C1=O [DP-17] (AL[NMeL]F[NMeF]IPTLD-Piperidide; lactam N-10)	–	–	38	94	–
CC[C@H](C)[C@H](NC(=O)[C@H](CC(C)C)N(C)C(=O)CN(C)C(=O)[C@@H]1CC(=O)N[C@H](C(C)C)C(=O)N[C@@H](C)C(=O)N[C@@H]([C@@H](C)O)C(=O)N(C)[C@@H](C)C(=O)N[C@@H](Cc2ccccc2)C(=O)N(C)[C@@H](CC(C)C)C(=O)N(C)[C@@H](Cc2ccccc2)C(=O)N(C)[C@@H](CC(C)C)C(=O)N1)C(=O)N1CCCCC1 [DP-576] ([dV]AT[NMeA]F[NMeL][NMeF][NMeL]D[Sar][NMeL]I-Piperidide; lactam N-9)	15	17	–	–	–
CC[C@H](C)[C@@H]1NC(=O)CCN(C)C(=O)C[C@@H](C(=O)N2CCCCC2)NC(=O)[C@H](Cc2ccccc2)N(C)C(=O)[C@H](CC(C)C)NC(=O)[C@H](CC(C)C)N(C)C(=O)[C@H](CC(C)C)NC(=O)[C@H]([C@@H](C)O)NC(=O)[C@H](Cc2ccccc2)NC(=O)[C@H](C(C)C)N(C)C1=O [DP-425] ([NMeβAla]I[NMeV]FTL[NMeL]L[NMeF]D-Piperidide; lactam N-10)	27	150	–	–	–
CC(C)C[C@@H]1NC(=O)[C@H](CC(C)C)N(C)C(=O)[C@H](CC(C)C)N(C)C(=O)[C@H](CC(C)C)NC(=O)[C@H](Cc2ccccc2)N(C)C(=O)[C@H](CCS(C)(=O)=O)NC(=O)[C@H](CC(C)C)N(C)C(=O)[C@H](Cc2ccccc2)NC(=O)[C@H](C)NC(=O)C[C@@H](C(=O)N(C)[C@@H](Cc2ccccc2)C(=O)N[C@@H](C)C(=O)N2CCCCC2)NC1=O [DP-607] (AF[NMeL][Met(O2)][NMeF]L[NMeL][NMeL]LD[NMeF]A-Piperidide; lactam N-10)	1.2	2	–	–	–
CC[C@H](C)[C@H](NC(=O)[C@H](CC(C)C)N(C)C(=O)[C@H](CC(C)C)N(C)C(=O)[C@H](Cc1ccccc1)N(C)C(=O)[C@@H]1CC(=O)N[C@H](C(C)C)C(=O)N(C)[C@@H](Cc2cccc(Cl)c2)C(=O)N(C)[C@@H](C)C(=O)N(C)[C@@H](CC(C)C)C(=O)N[C@@H]([C@@H](C)O)C(=O)N(C)[C@@H](CC(C)C)C(=O)N1)C(=O)N1CCCCC1 [DP-916] ([dV][NMePhe(3-Cl)][NMeA][NMeL]T[NMeL]D[NMeF][NMeL][NMeL]I-Piperidide; lactam N-7)	–	55	–	–	1.0E−07
CCCN1CC(=O)N(C)[C@@H](Cc2ccccc2)C(=O)N(C)[C@@H](Cc2ccccc2)C(=O)N(C)[C@@H](CC(C)C)C(=O)N2CCC[C@H]2C(=O)N(C)[C@@H](CC(C)C)C(=O)N[C@@H](C)C(=O)N(C)[C@@H](C(C)C)C(=O)N[C@H](C(=O)N2CCCCC2)CC(=O)N(C)[C@@H](C)C(=O)N[C@@H]([C@@H](C)O)C1=O [DP-541] ([NMeA]T[NPrGly][NMeF][NMeF][NMeL]P[NMeL]A[NMeV]D-Piperidide; lactam N-11)	–	–	23	22	–
CC(C)C[C@H]1C(=O)N(C)[C@@H](CC(C)C)C(=O)N(C)[C@@H](CC(C)C)C(=O)N[C@H](C(=O)N2CCCCC2)CC(=O)N(C)CCC(=O)N[C@@H]([C@@H](C)O)C(=O)N(C)[C@@H](C)C(=O)N(C)[C@@H](Cc2ccccc2)C(=O)N(C)[C@@H](Cc2ccccc2)C(=O)NCC(=O)N1C [DP-174] ([NMeβAla]T[NMeA][NMeF][NMeF]G[NMeL][NMeL][NMeL]D-Piperidide; lactam N-10)	22	66	–	–	–
